# *1 amine or outer side, *2 acyl side, *3 side chain or, on linkers, in order; H or OH if unused. Where a SMILES comes first, the peptide text is derived from it. [ ]: non-standard residue; d: D form. X1 = O=C(c1cc2c(c([N+](=O)[O-])c1)N([*:1])CC2)[*:2]; Hyp = O=C(O)[C@@H]1C[C@@H](O)CN1
# Tests used:
# [1] = Two-photon photolysis followed by fluorescence decay under a femtosecond laser at 710 nm; type: physicochemical; settings: 710 nm femtosecond laser, 100 to 200 mW; film/gel on microscope slide; slope 2 = two-photon process
# From the text: Two-photon microscope. The details of the in-housed developed two-photon microscope was previously described (Acosta et al., (2014) Biomed. Opt. Express 5, 3990-4001). In summary the light source is a mode-locked Ti:Sapphire laser (Maitai H P, 690-1040 nm, 100 fs, 80 MHz, Newport, Santa Clara, Calif.). The inventors have used 710 nm light to achieve two-photon excitation of N-acyl-nitroindoline. The home-built x-y scanner (polygon, galvanometer) can achieve 30 frames/s scanning rate. The laser power at the sample site is varied by rotating a half-wave plate in front of a polarizer. The fluorescence signal from the sample are detected in three spectral channels with photomultiplier tubes (PMTs): red (570-616 nm), green (500-550 nm), and blue (417-477 nm). […]
# Several spots within the sample were irradiated under the two-photon microscope using 710 nm light with varying excitation laser output powers ranging from 100 to 200 mW with increments of 25 mW. […] Therefore, as the photolysis reaction progresses, the fluorescent peptide 1 is consumed, and consequentially a decrease in average fluorescence intensity at the irradiation site is observed. For each irradiated spot, a time series of fluorescence images was recorded at every minute to track the fluorescence intensity decay throughout the photo induced reaction process (FIG. 4a-4d). […]
# [2] = type: physicochemical
# Description: Circular Dichroism (CD) of peptide 1 and thermal stability measurements. Far-UV CD studies were conducted to study the secondary structure of peptide 1. The measurements were carried out using a 20 μM solution of the lyophilized peptide 1 in 15 mM NaCl and 10 mM Na/K buffer (pH 6.8). The sample was placed into a quartz cuvette of 1 mm path length (Jasco) and heated from 20° C.-70° C. to characterize its thermal stability. At each temperature, the sample was equilibrated for 4 min prior measurement of the spectrum. CD scans were performed at a range from 196-240 nm with three accumulations of data at each temperature to improve the S/N ratio. Each spectrum underwent 11 point Savitzky-Golay smoothing to minimize high frequency noise. The experimentally estimated ellipticities (Gobs) were converted to mean molar ellipticity [θ] using the formula: [θ]=(θobs)/ncl where l is the path length of the cuvette; c is the concentration of the peptide, and n is the number of […] in the peptide.
# [3] = system: human mesenchymal stem cells; type: cell-based
# From the text: Culture and passaging of human Mesenchymal Stem Cells (MSC). Human adipose derived mesenchymal stem cells were obtained from Lonza at passage=3 (Lonza, Allendale, N.J., USA) and cultured according to manufacturer's recommendations. Certification was obtained and kept in file to ensure that the purchased human MSC (Lonza) was verified to be of the correct lineage and uncontaminated by other cell types or organisms. For the human MSC culture, a complete growth medium (Lonza) specifically MSCGM human Mesenchymal Stem Cell (HMSC) growth BulletKit™ Medium (Lonza) was used for maintaining the mesenchymal stem cells in an undifferentiated state. This medium is referred to as complete growth medium for HMSC here onwards. Prior to cell seeding, T-75 culture flasks were coated with 0.1% gelatin (Sigma Aldrich, St. Louis, Mo., USA) and incubated (37° C., 1 h). After this, the cell suspension in complete culture medium was transferred to a gelatin coated T-75 flask and incubated for 1 h (37° C., 5% CO2 and 95% RH). Prior to cell culture, the gelatin solution used for coating of the flasks was aspirated. After 70% confluency in culture was attained, cells were trypsizined and passaged for further experiments. […] Following this, cells were seeded atop this layer and cultured for 24 hours after which they were imaged using fluorescence microscopy (Zeiss Axiovision).
Compound,slope of the regression line in the double-log plot of reaction rate vs. laser intensity [1],stability of the structure at physiological temperature [2],cytotoxicity to cultured mesenchymal stem cells [3]
"O=C(NCC(=O)N1CCc2cc(Br)cc([N+](=O)[O-])c21)OCC1c2ccccc2-c2ccccc21 [compound 13, N-Fmoc-glycyl-5-bromo-7-nitroindoline]",1.996,,
NC(=O)CNC(=O)[C@@H]1CCCN1C(=O)[C@@H]1C[C@@H](O)CN1C(=O)CNC(=O)[C@@H]1CCCN1C(=O)[C@@H]1CCCN1C(=O)c1cc2c(c([N+](=O)[O-])c1)N(C(=O)CNC(=O)[C@@H]1CCCN1C(=O)[C@@H]1C[C@@H](O)CN1C(=O)CNC(=O)[C@@H]1CCCN1C(=O)[C@@H]1CCCN1C(=O)c1cc3c(c([N+](=O)[O-])c1)N(C(=O)CNC(=O)[C@@H]1CCCN1C(=O)[C@@H]1C[C@@H](O)CN1C(=O)CNC(=O)[C@@H]1CCCN1C(=O)[C@@H]1CCCN1C(=O)c1cc4c(c([N+](=O)[O-])c1)N(C(=O)CNC(=O)[C@@H]1CCCN1C(=O)[C@@H]1C[C@@H](O)CN1C(=O)CNC(=O)[C@@H]1CCCN1C(=O)[C@@H]1CCCN1C(=O)c1cc5c(c([N+](=O)[O-])c1)N(C(=O)CNC(=O)[C@@H]1CCCN1C(=O)[C@@H]1C[C@@H](O)CN1C(=O)CNC(=O)[C@@H]1CCCN1C(=O)[C@@H]1CCCN1)CC5)CC4)CC3)CC2 [peptide 1] (H-PPG[Hyp]PG[X1]PPG[Hyp]PG[X1]PPG[Hyp]PG[X1]PPG[Hyp]PG[X1]PPG[Hyp]PG-NH2),,very stable,not cytotoxic
